Measurements published in ChEMBL document CHEMBL4024717, “Anthranilamide-based 2-phenylcyclopropane-1-carboxamides, 1,1'-biphenyl-4-carboxamides and 1,1'-biphenyl-2-carboxamides: Synthesis biological evaluation and mechanism of action” (Eur J Med Chem, 2017).

Tests used:
K562 [1] = assay: Growth inhibition of human K562 cells at 10 uM after 24 hrs by MTT assay relative to control; assay type: functional; conditions: K562, 24 h, read-out: GI
K562 [2] = assay: Cytotoxicity against human K562 cells after 48 hrs by MTT assay; assay type: functional, cell-based; conditions: K562, 48 h

SMILES | inhibition of growth at 10 µM (K562 [1]) | IC50 (K562 [2])
COc1cc(NC(=O)[C@@H]2C[C@H]2c2ccccc2)c(C(N)=O)cc1OC | 26.7% | –
COc1cc2c(c(OC)c1OC)-c1ccc(OC)c(=O)cc1[C@@H](NC(C)=O)CC2 [COLCHICINE] | 63.6% | –
NC(=O)c1cc(I)ccc1NC(=O)[C@@H]1C[C@H]1c1ccccc1 | 25% | 10 µM
NC(=O)c1ccccc1NC(=O)[C@@H]1C[C@H]1c1ccccc1 | < 10% | –
NC(=O)c1cc(Cl)ccc1NC(=O)c1ccc(-c2ccccc2)cc1 | 45% | –
NC(=O)c1cc(Cl)ccc1NC(=O)[C@@H]1C[C@H]1c1ccccc1 | 24% | –
COc1ccc(NC(=O)c2ccc(-c3ccccc3)cc2)c(C(N)=O)c1 | 29.2% | –
COc1ccc(NC(=O)[C@@H]2C[C@H]2c2ccccc2)c(C(N)=O)c1 | 26.7% | –
NC(=O)c1cc(Cl)ccc1NC(=O)c1ccccc1-c1ccccc1 | 47.3% | –
Cc1ccc(NC(=O)c2ccccc2-c2ccccc2)c(C(N)=O)c1 | 48.9% | –
